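1) Cells in 96-well plates. 2) Compound, 48 h, 5 concentrations. 3) Linear interpolation between surrounding doses. 4) Unreached endpoint = highest concentration. At the GI50, growth is halved. TGI is the concentration that stops growth completely.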
Tests used:
Assay in all cases: DTP human tumour cell line panel, 48 h
HOP-92 NSCLC = system: HOP-92 NSCLC
SK-MEL-5 melanoma = system: SK-MEL-5 melanoma
MALME-3M melanoma = system: MALME-3M melanoma
U251 CNS = system: U251 CNS
DMS 114 small cell lung = system: DMS 114 small cell lung
UACC-62 melanoma = system: UACC-62 melanoma
OVCAR-3 ovarian = system: OVCAR-3 ovarian
MOLT-4 leukemia = system: MOLT-4 leukemia
LXFL 529 NSCLC = system: LXFL 529 NSCLC
COLO 205 colon = system: COLO 205 colon
DLD-1 colon = system: DLD-1 colon
SF-539 CNS = system: SF-539 CNS
MCF7 breast = system: MCF7 breast
BT-549 breast = system: BT-549 breast

| SMILES | TGI (HOP-92 NSCLC) | TGI (SK-MEL-5 melanoma) | TGI (MALME-3M melanoma) | TGI (U251 CNS) | TGI (DMS 114 small cell lung) | TGI (UACC-62 melanoma) | TGI (OVCAR-3 ovarian) | TGI (MOLT-4 leukemia) | TGI (LXFL 529 NSCLC) | TGI (COLO 205 colon) | TGI (DLD-1 colon) | TGI (SF-539 CNS) | TGI (MCF7 breast) | TGI (BT-549 breast) | GI50 (SK-MEL-5 melanoma) | GI50 (DMS 114 small cell lung) | GI50 (OVCAR-3 ovarian) |
| --- | --- | --- | --- | --- | --- | --- | --- | --- | --- | --- | --- | --- | --- | --- | --- | --- | --- |
| CCOC(=O)CC(=Nc1cc(C)on1)N(CC)CC | > 100 µM | > 100 µM | > 100 µM | > 100 µM | > 100 µM | > 100 µM | > 100 µM | > 100 µM | > 100 µM | > 100 µM | > 100 µM | > 100 µM |  |  |  |  |  |
| Cc1ccc(C(=O)NC(C)C)cc1N=NN(C)C | > 100 µM | > 100 µM |  | > 100 µM |  | > 100 µM | > 100 µM |  | > 100 µM |  | > 100 µM | > 100 µM |  |  |  |  |  |
| CCc1c(-c2coc(CC/C(C)=C/c3ccccc3)n2)oc(OC)c(C)c1=O | > 100 µM | > 46.9 µM | > 100 µM | > 53.9 µM | 29.2 µM | > 53 µM | > 100 µM | > 100 µM | > 55.5 µM | > 47.8 µM | > 65.6 µM | > 65 µM |  |  |  |  |  |
| Nc1nc(SCc2ccccc2[N+](=O)[O-])c2[nH]cnc2n1 | 9.06 µM | 49.1 µM | > 67.4 µM | > 100 µM |  | > 100 µM | > 100 µM | > 100 µM | > 100 µM | > 71.7 µM | > 100 µM | > 100 µM | > 100 µM | > 100 µM |  |  |  |
| C=CC[C@@]1(C#N)C[C@H](C[C@]2(C#N)C[C@H](CCl)OC(C)(C)O2)OC(C)(C)O1 | > 100 µM | > 100 µM | > 100 µM | > 100 µM | > 100 µM | > 100 µM | > 100 µM | > 100 µM |  | > 100 µM | > 100 µM | > 100 µM |  |  |  |  |  |
| [N-]=[N+]=NC(c1cn(C2CC(O)C(CO)O2)c(=O)[nH]c1=O)C(I)I (stereo unspecified) | > 100 µM | > 100 µM | > 100 µM | > 100 µM | > 100 µM | > 100 µM | > 100 µM | > 100 µM | > 100 µM | > 100 µM | > 100 µM | > 100 µM |  |  |  |  |  |
| N#CCCCCC12C3C(=O)N(c4ccccc4)C(=O)C3ON1O[C@@H]1C(=O)N(c3ccccc3)C(=O)[C@@H]12 (stereo partly specified) | > 100 µM | > 100 µM | > 100 µM | > 100 µM |  | > 100 µM | > 100 µM | > 100 µM |  | > 100 µM |  | > 100 µM | > 100 µM | > 100 µM |  |  |  |
| COC(=O)C1(Cc2ccc3c(c2)CCC3)Cc2cc3c(cc2C1=O)CCC3 (stereo unspecified) | 42.9 µM | 32.3 µM | > 46.4 µM | > 46.4 µM |  | > 46.4 µM | > 46.4 µM | 38.7 µM |  | 29.2 µM |  | > 46.4 µM | > 46.4 µM | 39.2 µM |  |  |  |
| CCOC(=S)SC/C(=N\OC(C)(C)OC)c1ccccc1 | 63.8 µM | > 100 µM | 75.9 µM | > 100 µM |  | > 100 µM | > 100 µM | 65.2 µM |  | > 100 µM |  | > 100 µM | > 100 µM | > 100 µM |  |  |  |
| O=C(O)c1ccc(/C=N\N(CCO)C2=NCCN2)cc1 | > 100 µM | > 100 µM | > 100 µM | > 100 µM |  | > 100 µM | > 100 µM | > 100 µM |  | > 100 µM |  | > 100 µM | > 100 µM | > 100 µM |  |  |  |
| COc1ccc2c(c1)Cc1c-2[nH]c2cc3c(cc2c1=O)OCO3 | 48.5 µM | 19.4 µM | 42.8 µM | 23.5 µM | 17.9 µM | 22.8 µM | 45.9 µM | 41.9 µM | > 100 µM | 25.5 µM | 41.7 µM | 30.6 µM |  |  |  |  |  |
| CCOC(=O)c1[nH]n(-c2ccccc2)c(=O)c1C=NC(=S)C(N)=S | > 100 µM | 40.3 µM | > 100 µM | > 100 µM |  | > 100 µM | > 100 µM | > 100 µM |  | 68.5 µM |  | 57.4 µM | > 100 µM | > 100 µM |  |  |  |
| CCC(c1nc2ccccc2c(=O)n1NC(=O)C(C)(C)C)C1(O)CCCCC1 (stereo unspecified) | > 100 µM | > 100 µM | > 100 µM | > 100 µM |  | > 100 µM | > 100 µM | > 100 µM |  | > 100 µM |  | > 100 µM | > 100 µM | > 100 µM |  |  |  |
| COc1ccc(-c2cc(-c3ccc(Nc4ccnc5cc(C(F)(F)F)ccc45)cc3)[nH]c(=O)c2C#N)cc1 | > 100 µM | > 100 µM | > 100 µM | > 70.9 µM |  | > 100 µM | > 100 µM | > 100 µM |  | > 63.7 µM |  | > 68.9 µM | > 100 µM | > 94.9 µM |  |  |  |
| O=C(O)[C@H]1NC[C@@H]2ON=C(Br)[C@@H]21 | > 100 µM | > 100 µM | > 100 µM | > 100 µM |  | > 100 µM | > 100 µM | > 100 µM |  | > 100 µM |  | > 100 µM | > 100 µM | > 100 µM |  |  |  |
| CS(=O)(=O)OC1CCN(C2(c3cccc(O)c3)CCCCC2)CC1 | > 100 µM | > 100 µM | > 100 µM | > 100 µM |  | > 100 µM | > 100 µM | 94.1 µM |  | > 100 µM |  | 89.9 µM | > 100 µM | > 100 µM |  |  |  |
| O=c1cc(-c2ccc[nH]2)[nH]c2cc3c(cc12)OCO3 |  | > 100 µM | > 100 µM | > 100 µM | > 100 µM | > 100 µM | > 100 µM | > 100 µM | > 100 µM | 60.3 µM | > 100 µM | 84.6 µM |  |  | 7.74 µM | 32.5 µM | 30.8 µM |
| CC1=NN(c2cccc(Cl)c2)C2(C1)SCC(=O)N2c1nc2ccccc2s1 (stereo unspecified) | > 100 µM | 39.4 µM | > 100 µM | 75.2 µM |  | > 100 µM | 58.9 µM | 38.9 µM |  | 32.5 µM |  | 45.8 µM | > 100 µM | > 100 µM |  |  |  |
| CC[S+](C)c1ccc(-c2c3nc(c(-c4ccc([S+](C)CC)cc4)c4ccc([nH]4)c(-c4ccc([S+](C)CC)cc4)c4nc(c(-c5ccc([S+](C)CC)cc5)c5ccc2[nH]5)C=C4)C=C3)cc1 (stereo unspecified) | > 100 µM | > 100 µM | > 100 µM | > 100 µM |  | 54.9 µM | > 100 µM | 67.1 µM | > 100 µM | > 100 µM |  | > 100 µM |  |  |  |  |  |
| COC(=O)Nc1nc2ccc(NS(=O)(=O)c3ccc(F)cc3)cc2[nH]1 | > 100 µM | > 100 µM | > 100 µM | > 100 µM |  | > 100 µM | 16.2 µM | 36.5 µM |  | 37.8 µM |  | 52.9 µM | > 100 µM | > 100 µM |  |  |  |
| CC[C@@]1(O)C(=O)OCc2c1cc1n(c2=O)Cc2c-1nc1ccccc1c2/C=N\NC(=O)C(N)=O | 12.9 µM | 2.96 µM | > 79.3 µM | 13.6 µM |  | 3.54 µM | > 100 µM | > 23.7 µM |  | > 100 µM |  | 0.177 µM | > 45.4 µM | > 90.9 µM |  |  |  |
| Cc1cc(C)c(N)c(C)c1N | > 100 µM | > 100 µM | > 100 µM | > 100 µM | > 100 µM | > 100 µM | > 100 µM | > 100 µM | > 100 µM | > 100 µM | > 100 µM | > 100 µM |  |  |  |  |  |
| COc1cc(C2c3cc4c(cc3OC(N3CCOCC3)C2C)OCO4)cc(OC)c1OC (stereo unspecified) | 60.2 µM | 6.78 µM | > 100 µM | > 20.1 µM |  | 56.5 µM | > 23 µM | > 38.2 µM |  | > 71.3 µM |  | 1.69 µM | > 77 µM | 65.8 µM |  |  |  |
| Nc1ccc(S(=O)(=O)c2ccc(N=[N+]([O-])c3ccc(S(=O)(=O)c4ccc(N)cc4)cc3)cc2)cc1 | 38.4 µM | > 100 µM | > 100 µM | > 57.3 µM |  | > 100 µM | > 56 µM | > 100 µM |  | > 100 µM |  | 58.1 µM | > 100 µM | > 65.6 µM |  |  |  |
| CCOc1ccc(C(c2c(O)c3ccccc3oc2=O)c2c(O)c3ccccc3oc2=O)cc1 | 65.1 µM | > 100 µM | > 100 µM | > 100 µM |  | > 100 µM | > 100 µM | > 100 µM |  | > 100 µM |  | > 100 µM | > 100 µM | > 100 µM |  |  |  |

— PubChem BioAssay (NCI)
